The nature of the data set: activity coefficient (dimensionless); of the first substance listed, at infinite dilution; xn = mol fraction of the nth substance listed. The following applies: 101 kPa, Liquid, Chromatography, x1 = 0.

Numbers after ± are expanded uncertainties.

As for `c1ccccc1` [benzene] + C[N+]1(CCCO)CCOCC1.O=S(=O)([N-]S(=O)(=O)C(F)(F)F)C(F)(F)F, the activity coefficient (318.15 K) worked out at 2.53 ± 0.17; the activity coefficient (328.15 K) came to 2.56 ± 0.17; the activity coefficient (338.15 K) turned out to be 2.58 ± 0.18; the activity coefficient (348.15 K) worked out at 2.6 ± 0.18; the activity coefficient (358.15 K) worked out at 2.63 ± 0.18; the activity coefficient (368.15 K) turned out to be 2.65 ± 0.18.

Turning to `C=C(C)c1ccccc1` [(1-methylethenyl)benzene] + C[N+]1(CCCO)CCOCC1.O=S(=O)([N-]S(=O)(=O)C(F)(F)F)C(F)(F)F, the activity coefficient is, setting by setting: (318.15 K) 5.97 ± 0.41; (328.15 K) 6.12 ± 0.42; (338.15 K) 6.28 ± 0.43; (348.15 K) 6.41 ± 0.44; (358.15 K) 6.55 ± 0.45; (368.15 K) 6.65 ± 0.45.

`CCOC(C)(C)C` [2-ethoxy-2-methylpropane] + C[N+]1(CCCO)CCOCC1.O=S(=O)([N-]S(=O)(=O)C(F)(F)F)C(F)(F)F: the activity coefficient by setting is: (318.15 K) 16.1 ± 1.1; (328.15 K) 15.8 ± 1.1; (338.15 K) 15.6 ± 1.1; (348.15 K) 15.2 ± 1; (358.15 K) 15 ± 1; (368.15 K) 14.8 ± 1.

Regarding `CC(C)OC(C)C` [diisopropyl ether] + C[N+]1(CCCO)CCOCC1.O=S(=O)([N-]S(=O)(=O)C(F)(F)F)C(F)(F)F, the activity coefficient (318.15 K) came out at 17.3 ± 1.2; the activity coefficient (328.15 K) stood at 17.1 ± 1.2; the activity coefficient (338.15 K) came to 16.9 ± 1.2; the activity coefficient (348.15 K) came to 16.7 ± 1.1; the activity coefficient (358.15 K) amounted to 16.5 ± 1.1; the activity coefficient (368.15 K) amounted to 16.3 ± 1.1.

`CC(C)CC(C)(C)C` [2,2,4-trimethylpentane] + C[N+]1(CCCO)CCOCC1.O=S(=O)([N-]S(=O)(=O)C(F)(F)F)C(F)(F)F: the activity coefficient reads like this: (318.15 K) 272 ± 19; (328.15 K) 226 ± 16; (338.15 K) 191 ± 13; (348.15 K) 165 ± 11; (358.15 K) 140 ± 10; (368.15 K) 125 ± 9.

On to `CC#N` [acetonitrile] + C[N+]1(CCCO)CCOCC1.O=S(=O)([N-]S(=O)(=O)C(F)(F)F)C(F)(F)F, for which the activity coefficient by setting is: (318.15 K) 0.479 ± 0.037; (328.15 K) 0.495 ± 0.038; (338.15 K) 0.513 ± 0.038; (348.15 K) 0.528 ± 0.039; (358.15 K) 0.545 ± 0.04; (368.15 K) 0.561 ± 0.04.

Regarding `C1CCCCC1` [cyclohexane] + C[N+]1(CCCO)CCOCC1.O=S(=O)([N-]S(=O)(=O)C(F)(F)F)C(F)(F)F, the activity coefficient is, setting by setting: (318.15 K) 66 ± 4.5; (328.15 K) 55.7 ± 3.8; (338.15 K) 48.3 ± 3.3; (348.15 K) 42.2 ± 2.9; (358.15 K) 36.3 ± 2.5; (368.15 K) 32.2 ± 2.2.

On to `C=COC(C)=O` [vinyl acetate] + C[N+]1(CCCO)CCOCC1.O=S(=O)([N-]S(=O)(=O)C(F)(F)F)C(F)(F)F, for which the activity coefficient by setting is: (318.15 K) 1.87 ± 0.13; (328.15 K) 1.91 ± 0.13; (338.15 K) 1.94 ± 0.13; (348.15 K) 1.98 ± 0.13; (358.15 K) 2 ± 0.14; (368.15 K) 2.03 ± 0.14.

Regarding `C=CCCCC` [hex-1-ene] + C[N+]1(CCCO)CCOCC1.O=S(=O)([N-]S(=O)(=O)C(F)(F)F)C(F)(F)F, the activity coefficient reads like this: (318.15 K) 58.2 ± 4; (328.15 K) 51.7 ± 3.5; (338.15 K) 45.2 ± 3.1; (348.15 K) 40.5 ± 2.8; (358.15 K) 35.9 ± 2.5.

For `C#CCCC` [1-pentyne] + C[N+]1(CCCO)CCOCC1.O=S(=O)([N-]S(=O)(=O)C(F)(F)F)C(F)(F)F, the activity coefficient reads like this: (318.15 K) 7.77 ± 0.53; (328.15 K) 7.48 ± 0.51; (338.15 K) 7.24 ± 0.49; (348.15 K) 6.99 ± 0.48; (358.15 K) 6.79 ± 0.46; (368.15 K) 6.63 ± 0.45.

On to `CCCC=O` [butanal] + C[N+]1(CCCO)CCOCC1.O=S(=O)([N-]S(=O)(=O)C(F)(F)F)C(F)(F)F, for which the activity coefficient reads like this: (318.15 K) 1.37 ± 0.09; (328.15 K) 1.4 ± 0.09; (338.15 K) 1.43 ± 0.09; (348.15 K) 1.45 ± 0.1; (358.15 K) 1.48 ± 0.1; (368.15 K) 1.5 ± 0.1.

`CCOCC` [diethyl ether] + C[N+]1(CCCO)CCOCC1.O=S(=O)([N-]S(=O)(=O)C(F)(F)F)C(F)(F)F: the activity coefficient runs as follows: (318.15 K) 4.94 ± 0.34; (328.15 K) 5 ± 0.34; (338.15 K) 5.05 ± 0.34; (348.15 K) 5.1 ± 0.35; (358.15 K) 5.14 ± 0.35; (368.15 K) 5.19 ± 0.35.

As for `CC(C)O` [propan-2-ol] + C[N+]1(CCCO)CCOCC1.O=S(=O)([N-]S(=O)(=O)C(F)(F)F)C(F)(F)F, the activity coefficient stood at 1.83 ± 0.12 (318.15 K); 1.78 ± 0.12 (328.15 K); 1.74 ± 0.12 (338.15 K); 1.71 ± 0.11 (348.15 K); 1.67 ± 0.11 (358.15 K); 1.64 ± 0.11 (368.15 K).

As for `CCCC(C)=O` [pentan-2-one] + C[N+]1(CCCO)CCOCC1.O=S(=O)([N-]S(=O)(=O)C(F)(F)F)C(F)(F)F, the activity coefficient by setting is: (318.15 K) 1.24 ± 0.08; (328.15 K) 1.29 ± 0.08; (338.15 K) 1.34 ± 0.09; (348.15 K) 1.4 ± 0.09; (358.15 K) 1.44 ± 0.09; (368.15 K) 1.48 ± 0.1.

`CCCCO` [butan-1-ol] + C[N+]1(CCCO)CCOCC1.O=S(=O)([N-]S(=O)(=O)C(F)(F)F)C(F)(F)F: the activity coefficient is 3.23 ± 0.22 (318.15 K); 3.07 ± 0.21 (328.15 K); 2.96 ± 0.2 (338.15 K); 2.84 ± 0.19 (348.15 K); 2.73 ± 0.19 (358.15 K); 2.64 ± 0.18 (368.15 K).

Consider `Cc1ccccc1C` [1,2-dimethylbenzene] + C[N+]1(CCCO)CCOCC1.O=S(=O)([N-]S(=O)(=O)C(F)(F)F)C(F)(F)F, for which the activity coefficient is, setting by setting: (318.15 K) 5.73 ± 0.39; (328.15 K) 5.76 ± 0.39; (338.15 K) 5.78 ± 0.39; (348.15 K) 5.81 ± 0.4; (358.15 K) 5.83 ± 0.4; (368.15 K) 5.86 ± 0.4.

As to `Cc1ccc(C)cc1` [1,4-dimethylbenzene] + C[N+]1(CCCO)CCOCC1.O=S(=O)([N-]S(=O)(=O)C(F)(F)F)C(F)(F)F, the activity coefficient by setting is: (318.15 K) 6.65 ± 0.45; (328.15 K) 6.7 ± 0.5; (338.15 K) 6.74 ± 0.46; (348.15 K) 6.78 ± 0.46; (358.15 K) 6.79 ± 0.46; (368.15 K) 6.84 ± 0.47.

For the compound `C=CCCCCCCCC` [1-decene] + C[N+]1(CCCO)CCOCC1.O=S(=O)([N-]S(=O)(=O)C(F)(F)F)C(F)(F)F, the activity coefficient (318.15 K) was 307 ± 21; the activity coefficient (328.15 K) is 269 ± 18; the activity coefficient (338.15 K) stood at 243 ± 17; the activity coefficient (348.15 K) came out at 218 ± 15; the activity coefficient (358.15 K) was 194 ± 13; the activity coefficient (368.15 K) stood at 176 ± 12.

Take `C#CCCCCCC` [1-octyne] + C[N+]1(CCCO)CCOCC1.O=S(=O)([N-]S(=O)(=O)C(F)(F)F)C(F)(F)F: the activity coefficient is, setting by setting: (318.15 K) 33 ± 2.3; (328.15 K) 31.3 ± 2.1; (338.15 K) 29.6 ± 2; (348.15 K) 28 ± 1.9; (358.15 K) 26.7 ± 1.8; (368.15 K) 25.5 ± 1.7.

Turning to `C#CCCCC` [1-hexyne] + C[N+]1(CCCO)CCOCC1.O=S(=O)([N-]S(=O)(=O)C(F)(F)F)C(F)(F)F, the activity coefficient is, setting by setting: (318.15 K) 12.5 ± 0.9; (328.15 K) 11.9 ± 0.8; (338.15 K) 11.6 ± 0.8; (348.15 K) 11.2 ± 0.8; (358.15 K) 10.7 ± 0.7; (368.15 K) 10.4 ± 0.7.

Consider `CCC[N+](=O)[O-]` [1-nitropropane] + C[N+]1(CCCO)CCOCC1.O=S(=O)([N-]S(=O)(=O)C(F)(F)F)C(F)(F)F, for which the activity coefficient is 1.24 ± 0.08 (318.15 K); 1.26 ± 0.08 (328.15 K); 1.28 ± 0.08 (338.15 K); 1.3 ± 0.08 (348.15 K); 1.32 ± 0.09 (358.15 K); 1.34 ± 0.09 (368.15 K).

Take `COC(C)(C)C` [2-methoxy-2-methylpropane] + C[N+]1(CCCO)CCOCC1.O=S(=O)([N-]S(=O)(=O)C(F)(F)F)C(F)(F)F: the activity coefficient (318.15 K) was found to be 4.94 ± 0.34; the activity coefficient (328.15 K) amounted to 5.07 ± 0.35; the activity coefficient (338.15 K) was 5.22 ± 0.36; the activity coefficient (348.15 K) turned out to be 5.35 ± 0.36; the activity coefficient (358.15 K) amounted to 5.45 ± 0.37; the activity coefficient (368.15 K) was found to be 5.58 ± 0.38.

On to `C1COCCO1` [1,4-dioxane] + C[N+]1(CCCO)CCOCC1.O=S(=O)([N-]S(=O)(=O)C(F)(F)F)C(F)(F)F, for which the activity coefficient is, setting by setting: (318.15 K) 0.6 ± 0.042; (328.15 K) 0.653 ± 0.045; (338.15 K) 0.709 ± 0.047; (348.15 K) 0.758 ± 0.05; (358.15 K) 0.811 ± 0.052; (368.15 K) 0.859 ± 0.055.

Take `C=CCCC` [1-pentene] + C[N+]1(CCCO)CCOCC1.O=S(=O)([N-]S(=O)(=O)C(F)(F)F)C(F)(F)F: the activity coefficient was determined as 64.5 ± 4.4 (298.15 K), 49.4 ± 3.4 (308.15 K), 38.3 ± 2.6 (318.15 K) and 30.6 ± 2.1 (328.15 K).

In the case of `CCCOCCC` [dipropyl ether] + C[N+]1(CCCO)CCOCC1.O=S(=O)([N-]S(=O)(=O)C(F)(F)F)C(F)(F)F, the activity coefficient is 20.1 ± 1.4 (318.15 K); 19.5 ± 1.3 (328.15 K); 18.9 ± 1.3 (338.15 K); 18.4 ± 1.3 (348.15 K); 17.9 ± 1.2 (358.15 K); 17.4 ± 1.2 (368.15 K).

As to `C=Cc1ccccc1` [styrene] + C[N+]1(CCCO)CCOCC1.O=S(=O)([N-]S(=O)(=O)C(F)(F)F)C(F)(F)F, the activity coefficient worked out at 3.45 ± 0.23 (318.15 K); 3.51 ± 0.24 (328.15 K); 3.58 ± 0.24 (338.15 K); 3.66 ± 0.25 (348.15 K); 3.72 ± 0.25 (358.15 K); 3.78 ± 0.26 (368.15 K).

On to `Cc1cccc(C)c1` [1,3-dimethylbenzene] + C[N+]1(CCCO)CCOCC1.O=S(=O)([N-]S(=O)(=O)C(F)(F)F)C(F)(F)F, for which the activity coefficient is 6.44 ± 0.44 (318.15 K); 6.55 ± 0.45 (328.15 K); 6.64 ± 0.45 (338.15 K); 6.73 ± 0.46 (348.15 K); 6.85 ± 0.47 (358.15 K); 6.92 ± 0.47 (368.15 K).

For the compound `C1=CCCCC1` [cyclohexene] + C[N+]1(CCCO)CCOCC1.O=S(=O)([N-]S(=O)(=O)C(F)(F)F)C(F)(F)F, the activity coefficient is, setting by setting: (318.15 K) 23.7 ± 1.6; (328.15 K) 21.6 ± 1.5; (338.15 K) 20.2 ± 1.4; (348.15 K) 18.6 ± 1.3; (358.15 K) 17.1 ± 1.2; (368.15 K) 16.2 ± 1.1.

For the origin of these results see the NIST ThermoML archive (doi:10.1016/j.jct.2015.02.024).
